We go through seven molecules from patent US12173002B2, “PRMT5 inhibitors and methods of use” (SHANGHAI APEIRON THERAPEUTICS COMPANY LIMITED, priority 2022, dated 2024).

pIC50: −log10 of the molar value.

As a reminder, the AUC(0-t) is exposure summed from dosing to a finite time, without extrapolation to infinity. Broadly, the half-life is the time needed for the level to fall by half in the phase considered. Higher therefore signals slow loss. As a reminder, the pIC50 is the IC50 on a negative log10 scale, so that one unit is a factor of ten. Read a low pIC50 as a large IC50. What is called bioavailability is the share of a dose that reaches the circulation, judged against a reference dose that is usually intravenous.

Data set [1] in a line: Mouse pharmacokinetic experiment. Format: in vivo. As to conditions: male, ICR mice, plasma. As for the experimental part: II. Mouse Pharmacokinetic Experiment 1. Test Compounds
(§1) The compounds used in this experiment are specific embodiments of the present invention, with reference to compound AMG473 as an example from Amgen's patent WO 2022/169948A1, identified as example 473.
ICR male mice, N=3/group; sourced from Zhejiang Vital River Laboratory Animal Technology Co., Ltd.
3. Drug Preparation and Administration
Single oral (PO) administration to ICR mice: Compounds were dissolved in dimethyl sulfoxide, added to polyethylene glycol 400 and sterile water, and then adjusted to a clear solution with a small amount of 1 mol/L hydrochloric acid. After overnight fasting, the mice were orally gavaged with a dose of 10 mg/kg.
Single intravenous (IV) administration to ICR mice: Compounds were dissolved in dimethyl sulfoxide, added to polyethylene glycol 400 and sterile water, and then adjusted to a clear solution with a small amount of 1 mol/L hydrochloric acid. After overnight fasting, the mice received tail vein injections with a dose of 3 mg/kg.
Approximately 30 μL/time point blood samples were collected via the tail vein. Potassium ethylenediaminetetraacetate was used as an anticoagulant, and samples were centrifuged at 4000 g/min for 5 minutes at 4° C. within 1 hour. Blood sampling time points were 0.0833 (IV), 0.25, 0.5, 1, 2, 4, 6, 8, 24 hours. Samples were stored in a −20° C. freezer.
Plasma samples (30 μL, 10 μL sample+20 μL blank plasma) were mixed with 200 μL ice-cold acetonitrile containing internal standards. After vortexing for 30 seconds, samples were centrifuged at 4000 g/min for 20 minutes. One hundred microliters of the supernatant were transferred to a 96-well plate, followed by the addition of 200 μL ultrapure water. After vortexing for 30 seconds, 5 μL or 10 μL were injected into LC-MS/MS for analysis.

A further data set deals with hERG ion channel (Homo sapiens, UniProt Q12809). Put plainly: hERG ion channel inhibition experiment (manual patch clamp, HEK293 cells). The class given is cell-based. As to conditions: HEK293 cells stably expressing hERG, whole-cell patch clamp, n=2. As for the experimental part: III. hERG Ion Channel Inhibition Experiment
as §1
2. Cell Line and Cell Culture
Stably expressing hERG ion channel HEK293 cell line (Catalog: K1236) was purchased from Invitrogen. This cell line was cultured in a medium containing 85% DMEM, 10% dialyzed fetal bovine serum, 0.1 mM non-essential amino acid solution, 100 U/mL penicillin-streptomycin solution, 25 mM HEPES, 5 μg/mL blasticidin, and 400 μg/mL geneticin. When the cell density reached 40%˜80% of the culture dish area, digestion was performed using trypsin, and cells were passaged three times per week. Before the experiment, cells were cultured at a density of 5×10′ in 3.5 cm culture dishes, induced with […] Doxycycline for 48 hours. Subsequently, cells were digested and seeded onto slides for subsequent manual patch clamp experiments.)
3. Experimental Procedure
• 1) Place glass slides containing HEK293 cells in the perfusion chamber of the micro-manipulation station. • 2) Under an Olympus IX71 or IX73 inverted microscope, position suitable cells in the central field of view using a ×10 objective. Locate the tip of the glass electrode in the central field. Use the micromanipulator to lower the electrode while adjusting the coarse focus spiral to slowly approach the cell. • 3) When approaching the cell rapidly, switch to a ×40 objective for observation. Fine-tune the electrode approach using the micromanipulator to gradually reach the cell's surface. • 4) Apply negative pressure to establish 1GQ seal between the electrode tip and the cell membrane. • 5) Compensate for the transient capacitance current Cfast under voltage clamp mode. Then, repeat the brief negative pressure application for membrane rupture, ultimately reaching the whole-cell recording mode. • 6) Under voltage clamp at −60 mV, compensate for slow capacitance current Cslow, cell membrane capacitance (Cm), and input membrane resistance (Ra). • 7) Once the cell is stable, change the clamping voltage to −90 mV, set the sampling frequency to 20 kHz, and the filtering frequency to 10 kHz. Leak current detection conditions involve changing the clamping voltage to −80 mV for a duration of 500 ms. • 8) The hERG current testing method is as follows: Apply a 4.8-second depolarization command voltage to depolarize the membrane potential from −80 mV to +30 mV, then instantly apply a 5.2-second repolarization voltage to reduce the membrane potential to −50 mV to remove channel inactivation, allowing observation of the hERG tail current. The peak of the tail current represents the size of the hERG current. • 9) The hERG current […] is continuously recorded for 120 seconds before administration to assess the stability of the tested cells in producing hERG currents. Only stable cells within an acceptable range are eligible for subsequent compound testing. • 10) Testing the inhibitory effect of the test compound on hERG current: First, determine the baseline of hERG current obtained in extracellular fluid containing 0.1% DMSO. After maintaining stable hERG current for at least 5 minutes, sequentially perfuse the solution containing the test compound around the cells from low to high concentrations. After each perfusion, wait for about 5 minutes to allow the compound to act on the cells and simultaneously record hERG currents. Record the last 5 hERG current values after the recorded current stabilizes, and take their average as the final current value at a specific concentration. […] Meanwhile, positive compound dofetilide is synchronously detected before and after the end of the test drug experiment using the same patch clamp system to ensure the reliability and sensitivity of the entire detection system. The above test steps will be repeated on two separate test cells (n=2). 4. Data Analysis […]
In general terms: Block of hERG is tested as a sign of cardiac risk.

Data set [2] concerns HCT-116 MTAP(−/−) deficient cells. Put plainly: Inhibitory activity on proliferation of HCT-116 MTAP(−/−) deficient cells (Cell-Titer Glo, 8 days). Format: cell-based. The conditions noted are these: Homo sapiens, HCT-116, 192 h, 8 days incubation. As for the experimental part:
Test 1: Compound's inhibitory activity on proliferation of HCT-116 MTAP(−/−) deficient cells. P Materials and Cells: HCT-116 MTAP(−/−) deficient cells obtained from Kyinno Bio (China); RPMI-1640 medium, fetal bovine serum, and penicillin-streptomycin purchased from Thermo Fisher Scientific (America); 384-well plates from PerkinElmer (America); Cell-Titer Glo assay kit from Promega (America).
Cell Culture: HCT116 MTAP(−/−) deficient cells were cultured in RPMI 1640 medium containing 10% fetal bovine serum and 1% penicillin-streptomycin at 37° C., 5% CO2. Only cells in logarithmic growth phase were used for experiments.
Cell Proliferation Inhibition Assay: The compound's inhibitory activity on HCT-116 MTAP(−/−) deficient cells was assessed using the Cell-Titer Glo assay kit. Adjusting cell concentration, 40 μL was seeded into a 384-well plate and cultured overnight at 37° C., 5% CO2. Each well received 40 nL of the compound, achieving concentrations from 0 to 10,000 nM (starting concentration 10,000 nM, 3-fold dilution, 10 points), with 0.1% DMSO. The cell plate was incubated for 8 days at 37° C., 5% CO2. Cell-Titer Glo reagent (40 μL) was added to measure cell viability.

For data set [3], the system named is HCT-116 MTAP wild-type cells. Put plainly: Inhibitory activity on proliferation of HCT-116 MTAP wild-type cells (Cell-Titer Glo, 8 days). The class given is cell-based. The conditions noted are these: Homo sapiens, HCT-116, 192 h, 8 days incubation. As for the experimental part: Test 2: Compound's inhibitory activity on proliferation of HCT-116 MTAP wild-type cells.
Materials and Cells: HCT-116 MTAP wild-type cells obtained from Kyinno Bio (China); RPMI-1640 medium, fetal bovine serum, and penicillin-streptomycin purchased from Thermo Fisher Scientific (America); 384-well plates from PerkinElmer (America); Cell-Titer Glo assay kit from Promega (America).
Cell Culture: HCT116 MTAP wild-type cells were cultured in RPMI 1640 medium containing 10% fetal bovine serum and 1% penicillin-streptomycin at 37° C., 5% CO2. Only cells in logarithmic growth phase were used for experiments.
Cell Proliferation Inhibition Assay: The compound's inhibitory activity on HCT-116 MTAP wild-type cells was assessed using the Cell-Titer Glo assay kit. Adjusting cell concentration, 40 μL was seeded into a 384-well plate and cultured overnight at 37° C., 5% CO2. Each well received 40 nL of the compound, achieving concentrations from 0 to 10,000 nM (starting concentration 10,000 nM, 3-fold dilution, 10 points), with 0.1% DMSO. The cell plate was incubated for 8 days at 37° C., 5% CO2. Cell-Titer Glo reagent (40 μL) was added to measure cell viability.

Sequence of hERG ion channel (Q12809 whole entry): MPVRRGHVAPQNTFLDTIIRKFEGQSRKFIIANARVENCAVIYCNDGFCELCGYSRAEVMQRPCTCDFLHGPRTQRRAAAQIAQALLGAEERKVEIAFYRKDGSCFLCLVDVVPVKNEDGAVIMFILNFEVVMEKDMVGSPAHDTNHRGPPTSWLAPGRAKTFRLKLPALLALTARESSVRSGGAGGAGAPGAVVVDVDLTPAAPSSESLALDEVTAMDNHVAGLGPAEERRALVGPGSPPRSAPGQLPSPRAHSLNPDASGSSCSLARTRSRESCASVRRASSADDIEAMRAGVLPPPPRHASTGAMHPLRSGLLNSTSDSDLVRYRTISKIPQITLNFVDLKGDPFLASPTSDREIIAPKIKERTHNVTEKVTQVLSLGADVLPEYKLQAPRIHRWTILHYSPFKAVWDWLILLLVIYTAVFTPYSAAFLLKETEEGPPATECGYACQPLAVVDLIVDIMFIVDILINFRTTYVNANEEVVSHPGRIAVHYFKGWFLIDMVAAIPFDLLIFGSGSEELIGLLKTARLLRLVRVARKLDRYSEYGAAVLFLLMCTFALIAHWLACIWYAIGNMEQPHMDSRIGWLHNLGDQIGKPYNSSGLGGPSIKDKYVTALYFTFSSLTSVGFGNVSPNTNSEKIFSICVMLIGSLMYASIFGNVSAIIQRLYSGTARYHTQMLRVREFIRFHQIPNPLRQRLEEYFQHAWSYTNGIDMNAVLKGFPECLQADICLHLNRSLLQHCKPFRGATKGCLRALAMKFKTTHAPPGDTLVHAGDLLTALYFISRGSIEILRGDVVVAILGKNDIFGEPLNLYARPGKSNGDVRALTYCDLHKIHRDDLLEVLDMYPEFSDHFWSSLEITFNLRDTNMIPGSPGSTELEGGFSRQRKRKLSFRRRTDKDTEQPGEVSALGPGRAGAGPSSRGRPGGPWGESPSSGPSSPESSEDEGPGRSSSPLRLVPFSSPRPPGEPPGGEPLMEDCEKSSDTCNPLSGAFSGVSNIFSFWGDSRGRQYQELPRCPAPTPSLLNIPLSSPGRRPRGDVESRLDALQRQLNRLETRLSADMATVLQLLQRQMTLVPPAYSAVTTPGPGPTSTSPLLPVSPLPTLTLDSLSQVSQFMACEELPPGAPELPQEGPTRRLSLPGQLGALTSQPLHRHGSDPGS

`CN(C(=O)c1cc2c(cn1)nc(N)c1cncn12)[C@@H]1COc2cc(C(F)(F)F)ccc21` [Example 4, (S)-4-amino-N-methyl-N-(6-(trifluoromethyl)-2,3-dihydrobenzofuran-3-yl)imidazo[1,5-a] pyrido[3,4-e] pyrazine-8-carboxamide]: in data set [1] (IV 3 mg/kg), the AUC(0-t) came out at 8090 ng·h/mL and the half-life was 4.06 h. In data set [1] (PO 10 mg/kg), this molecule gave an AUC(0-t) of 21000 ng·h/mL and a half-life of 2.67 h. At hERG ion channel, this molecule gave a negative logarithm of the IC50 (pIC50) of 5.28.

Consider `CN(C(=O)c1ccc2nc(N)c3cncn3c2c1)[C@@H]1COc2cc(C(F)(F)F)ccc21` [Example 107, (S)-4-amino-N-methyl-N-(6-(trifluoromethyl)-2,3-dihydrobenzofuran-3-yl)imidazo[1,5-a] quinoxaline-8-carboxamide], for which, in data set [1] (IV 3 mg/kg), the AUC(0-t) was 11200 ng·h/mL and the half-life is 4.53 h. In data set [1] (PO 10 mg/kg), the AUC(0-t) was 44100 ng·h/mL and the half-life is 4.56 h. This molecule also had a pIC50 on hERG ion channel of 5.35.

Turning to `[2H]C([2H])([2H])N(C(=O)c1ccc2nc(N)c3cncn3c2c1)[C@@H]1COc2cc(C(F)(F)F)ccc21` [Example 16, (S)-4-amino-N-(methyl-d3)-N-(6-(trifluoromethyl)-2,3-dihydrobenzofuran-3-yl)imidazo[1,5-a] quinoxaline-8-carboxamide], in data set [1] (IV 3 mg/kg), the AUC(0-t) was 9710 ng·h/mL and the half-life was 3.65 h. In data set [1] (PO 10 mg/kg), this molecule showed an AUC(0-t) of 42500 ng·h/mL and a half-life of 3.31 h. In addition, the pIC50 against hERG ion channel is 5.64.

With `[2H]C([2H])([2H])N(C(=O)c1cc2c(cc1F)nc(N)c1cncn12)[C@@H]1COc2cc(C(F)(F)F)ccc21` [Example 41, (S)-4-amino-7-fluoro-N-(methyl-d3)-N-(6-(trifluoromethyl)-2,3-dihydrobenzofuran-3-yl)imidazo[1,5-a] quinoxaline-8-carboxamide], the results for the AUC(0-t) in data set [1] (IV 3 mg/kg) and in data set [1] (PO 10 mg/kg) were 5420 ng·h/mL and 46300 ng·h/mL, respectively. Moreover, the half-life is 4.3 h in data set [1] (IV 3 mg/kg) and 4.12 h in data set [1] (PO 10 mg/kg). On hERG ion channel, the pIC50 was 5.09.

Take `CN(C(=O)c1ccc2nc(N)c3cncn3c2c1)[C@@H]1COc2cc(S(F)(F)(F)(F)F)ccc21` (single isomer, unassigned) [Example 104]: the pIC50 in data set [2] is 8.34; in data set [3], 6.23; against hERG ion channel, 5.82. For the same molecule, the values for the AUC(0-t) in data set [1] (IV 3 mg/kg) and in data set [1] (PO 10 mg/kg) were 10500 ng·h/mL and 26500 ng·h/mL, respectively. Moreover, the values for the half-life in data set [1] (IV 3 mg/kg) and in data set [1] (PO 10 mg/kg) were 6.1 h and 5.02 h, respectively. Further, in data set [1] (PO 10 mg/kg vs IV 3 mg/kg, read-out: Bioavailability F), the bioavailability stood at 74%.

As for `CN(C(=O)c1ccc2nc(N)c3cncn3c2c1)[C@H]1COCc2ccc(C(F)(F)F)cc21` (single isomer, unassigned) [Example 93], the values for the pIC50 in data set [2] and in data set [3] were less than 5.52 and less than 5.00, respectively.

Turning to `CN(C(=O)c1ccc2nc(N)c3cncn3c2c1)[C@@H]1COc2cc(C(F)(F)C(F)(F)F)ccc21` [Example 130, (S)-4-amino-N-methyl-N-(6-(perfluoroethyl)-2,3-dihydrobenzofuran-3-yl)imidazo[1,5-a] quinoxaline-8-carboxamide], the AUC(0-t) in data set [1] (IV 3 mg/kg) is 10800 ng·h/mL; in data set [1] (PO 10 mg/kg), 28300 ng·h/mL. In addition, the values for the half-life in data set [1] (IV 3 mg/kg) and in data set [1] (PO 10 mg/kg) were 4.5 h and 3.34 h, respectively. On hERG ion channel, this molecule showed a pIC50 of 5.87.
